Patent US5488060A, “Substituted thiadiazoles, compositions containing them and their use as antimicrobial and marine antifouling agents” (The Dow Chemical Company, priority 1994, dated 1996)
Values after ≈ are worked out from the molar mass of the structure shown. Like-named read-outs stand apart in the source and are kept apart here.

Legend:
Assay type in all cases: cell-based
[1] = tested on: Pseudomonas aeruginosa (Pa); experiment: Minimum inhibitory concentration (MIC) in nutrient agar, Pseudomonas aeruginosa; conditions: 30° C., 48 hours, read-out: Minimum Inhibitory Concentration, Pa
Procedure, shortened: (§1)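 MIC is determined by agar incorporation into neutral and alkaline nutrient agar, with compound at final 500 to 1.0 ppm added from a 1% acetone–water solution. Plates are inoculated with 10^8 CFU/mL cultures and read after 48 h at 30° C.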

[2] = tested on: Proteus vulgaris (Pv); experiment: Minimum inhibitory concentration (MIC) in nutrient agar, Proteus vulgaris; conditions: 48 h
Procedure, shortened: as §1

[3] = tested on: Escherichia coli (Ec); experiment: Minimum inhibitory concentration (MIC) in nutrient agar, Escherichia coli
Procedure, shortened: as §1

[4] = tested on: Enterobacter aerogenes (Ea); experiment: Minimum inhibitory concentration (MIC) in nutrient agar, Enterobacter aerogenes; conditions: Klebsiella aerogenes, 48 h
Procedure, shortened: as §1

[5] = tested on: Pseudomonas aeruginosa (PRD-10); experiment: Minimum inhibitory concentration (MIC) in nutrient agar, Pseudomonas aeruginosa PRD-10; conditions: 48 h
Procedure, shortened: as §1

[6] = tested on: Salmonella choleraesuis (Se); experiment: Minimum inhibitory concentration (MIC) in nutrient agar, Salmonella choleraesuis; conditions: Salmonella enterica, 48 h
Procedure, shortened: as §1

[7] = tested on: Bacillus subtilis (Bs); experiment: Minimum inhibitory concentration (MIC) in nutrient agar, Bacillus subtilis
Procedure, shortened: as §1

[8] = tested on: Aureobasidium pullulan (Ap); experiment: Minimum inhibitory concentration (MIC) in malt yeast agar, Aureobasidium pullulan; conditions: pH 5.5, read-out: Minimum Inhibitory Concentration, Ap
Procedure, shortened: (§2)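 Growth is scored at 30 °C after 72 h for fungi and 48 h for yeast on malt yeast agar (pH 5.5) containing compound at final levels from 500 down to zero ppm. Organisms are grown 7 days at 30 °C, suspended in saline with octylphenoxy polyethoxy ethanol, and diluted 1:9 before replicator inoculation.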

[9] = tested on: Aspergillus niger (An); experiment: Minimum inhibitory concentration (MIC) in malt yeast agar, Aspergillus niger; conditions: 72 h, pH 5.5, read-out: Minimum Inhibitory Concentration, An
Procedure, shortened: as §2

[10] = tested on: Saccharomyces cerevisiae (Sc); experiment: Minimum inhibitory concentration (MIC) in malt yeast agar, Saccharomyces cerevisiae
Procedure, shortened: as §2

[11] = tested on: Trichoderma viride (Tv); experiment: Minimum inhibitory concentration (MIC) in malt yeast agar, Trichoderma viride; conditions: pH 5.5; malt yeast agar, 30° C., 72 hours for fungi; read-out: Minimum Inhibitory Concentration, Tv
Procedure, shortened: as §2

[12] = tested on: Klebsiella pneumoniae (Kp); experiment: Minimum inhibitory concentration (MIC) in nutrient agar, Klebsiella pneumoniae
Procedure, shortened: as §1

[13] = tested on: Fusarium oxysporum (Fo); experiment: Minimum inhibitory concentration (MIC) in malt yeast agar, Fusarium oxysporum; conditions: pH 5.5; malt yeast agar, 30° C., 72 hours for fungi; read-out: Minimum Inhibitory Concentration, Fo
Procedure, shortened: as §2

[14] = tested on: Staphylococcus aureus (Sa); experiment: Minimum inhibitory concentration (MIC) in nutrient agar, Staphylococcus aureus
Procedure, shortened: as §1

[15] = tested on: Penicillium chrysogenum (Pc); experiment: Minimum inhibitory concentration (MIC) in malt yeast agar, Penicillium chrysogenum
Procedure, shortened: as §2

[16] = tested on: Candida albicans (Ca); experiment: Minimum inhibitory concentration (MIC) in malt yeast agar, Candida albicans; conditions: pH 5.5; malt yeast agar, 30° C., 48 hours for yeast; read-out: Minimum Inhibitory Concentration, Ca
Procedure, shortened: as §2

[17] = pH 6.8, read-out: Minimum Inhibitory Concentration, Pv
[18] = pH 8.2, read-out: Minimum Inhibitory Concentration, Pv
[19] = 48 h, pH 6.8, read-out: Minimum Inhibitory Concentration, Ec
[20] = pH 6.8, read-out: Minimum Inhibitory Concentration, Ea
[21] = pH 8.2, read-out: Minimum Inhibitory Concentration, Ea
[22] = pH 6.8, read-out: Minimum Inhibitory Concentration, PRD
[23] = pH 8.2, read-out: Minimum Inhibitory Concentration, PRD
[24] = pH 6.8, read-out: Minimum Inhibitory Concentration, SC
[25] = pH 8.2, read-out: Minimum Inhibitory Concentration, SC
[26] = 48 h, pH 8.2, read-out: Minimum Inhibitory Concentration, Kp
[27] = pH 6.8, nutrient agar, 30° C., 48 hours, read-out: Minimum Inhibitory Concentration, Kp
[28] = pH 6.8, nutrient agar, 30° C., 48 hours, read-out: Minimum Inhibitory Concentration, Sa

Compound | MIC ([1]; pH 6.8, nutrient agar) [µg/mL] | MIC ([1]; pH 8.2, nutrient agar) [µg/mL] | MIC [2, 17] [µg/mL] | MIC [2, 18] [µg/mL] | MIC [3, 19] [µg/mL] | MIC [4, 20] [µg/mL] | MIC [4, 21] [µg/mL] | MIC [5, 22] [µg/mL] | MIC [5, 23] [µg/mL] | MIC [6, 24] [µg/mL] | MIC [6, 25] [µg/mL] | MIC [8] [µg/mL] | MIC [9] [µg/mL] | MIC [11] [µg/mL] | MIC [12, 26] [µg/mL] | MIC [12, 27] [µg/mL] | MIC [13] [µg/mL] | MIC [14, 28] [µg/mL] | MIC [16] [µg/mL] | further results
CS(=O)(=O)c1ccc(-c2nsnc2SCSC#N)cc1 [Example XXV, 4-(4-Methylsulfonylphenyl)-3-thiocyanatomethylthio-1,2,5-thiadiazole] | 500 (≈ 1460 µM) | > 500 | 500 (≈ 1460 µM) | > 500 | 500 (≈ 1460 µM) | 500 (≈ 1460 µM) | > 500 | 500 (≈ 1460 µM) | > 500 | 500 (≈ 1460 µM) | > 500 | 250 (≈ 728 µM) | 250 (≈ 728 µM) | > 500 | > 500 | 500 (≈ 1460 µM) | > 500 | 500 (≈ 1460 µM) | 500 (≈ 1460 µM) | MIC ([3]; 48 h, pH 8.2, read-out: Minimum Inhibitory Concentration, Ec): 500 µg/mL (≈ 1460 µM); MIC ([7]; 48 h, pH 6.8, read-out: Minimum Inhibitory Concentration, Bs): 500 µg/mL (≈ 1460 µM); MIC ([7]; 48 h, pH 8.2, read-out: Minimum Inhibitory Concentration, Bs): 500 µg/mL (≈ 1460 µM); MIC ([10]; pH 5.5, malt yeast agar, 30° C., 48 hours for yeast, read-out: Minimum Inhibitory Concentration, SC): 500 µg/mL (≈ 1460 µM); MIC ([14]; 48 h, pH 8.2, read-out: Minimum Inhibitory Concentration, Sa): 500 µg/mL (≈ 1460 µM); MIC ([15]; pH 5.5, malt yeast agar, 30° C., 72 hours for fungi, read-out: Minimum Inhibitory Concentration, PC): 9 µg/mL (≈ 26.2 µM)
N#CSCSc1nsnc1-c1ccc(C(F)(F)F)cc1 [Example XXVI, 4-(4-Trifluoromethyl-phenyl)-3-thiocyanatomethylthio-1,2,5-thiadiazole] | 500 (≈ 1500 µM) | > 500 | 500 (≈ 1500 µM) | > 500 | 500 (≈ 1500 µM) | 500 (≈ 1500 µM) | > 500 | 500 (≈ 1500 µM) | > 500 | 500 (≈ 1500 µM) | > 500 | 5 (≈ 15 µM) | 25 (≈ 75 µM) | > 500 | > 500 | 500 (≈ 1500 µM) | > 500 | 25 (≈ 75 µM) | > 500 | MIC ([3]; pH 8.2, nutrient agar, 30° C., 48 hours, read-out: Minimum Inhibitory Concentration, Ec): 250 µg/mL (≈ 750 µM); MIC ([7]; pH 6.8, nutrient agar, 30° C., 48 hours, read-out: Minimum Inhibitory Concentration, Bs): 9 µg/mL (≈ 27 µM); MIC ([7]; pH 8.2, nutrient agar, 30° C., 48 hours, read-out: Minimum Inhibitory Concentration, Bs): 9 µg/mL (≈ 27 µM); MIC ([10]; 48 h, pH 5.5, read-out: Minimum Inhibitory Concentration, SC): 2.5 µg/mL (≈ 7.5 µM); MIC ([14]; pH 8.2, nutrient agar, 30° C., 48 hours, read-out: Minimum Inhibitory Concentration, Sa): 25 µg/mL (≈ 75 µM); MIC ([15]; 72 h, pH 5.5, read-out: Minimum Inhibitory Concentration, PC): 2.5 µg/mL (≈ 7.5 µM)
